For 2 substances, contact angle results are on record in patent US20120015965A1, “PHARMACEUTICAL COMPOSITION COMPRISING N-[3-CHLORO-4-[(3-FLUOROPHENYL)METHOXY] PHENYL]-6-[5[[[2-(METHYLSULFONYL) ETHYL]AMINO]METHYL]-2-FURYL]-4- QUINAZOLINAMINE” (Ratiopharm GmbH, priority 2008, published 2012).

The data set is described as follows: Wetting angle (contact angle) of the API by goniometer. Conditions: advancing contact angle, water, 22° C., about 34% RH; accuracy about ±2°; ditosylate monohydrate. Format: physicochemical. As to the method:
Alternatively, the above described necessities can be complied with if the active pharmaceutical ingredient used in the preparation of the pharmaceutical composition has a low wetting angle (also: contact angle). The contact angle is a measure of the wettability, that is the lower the contact angle of a given substance, the better it's wettability. Preferably, the wetting angle is below 55°, preferably below 50° and most preferred below 47°. The wetting angle can be measured according to standard methods known in the art, e.g. by means of a goniometer. For this measurement 0.3 g of API is compressed using a KBr press (2000 kg for 2 minutes) to a moulding with a diameter of 1.25 cm. The sample is stored at 100% RH and placed on a glass frit that is kept in contact with water (Millipore quality) one hour prior to the measurement. The wetting angle is then measured on an OCA40, Dataphysics Instruments GmbH, Filderstadt, at 22° C. and about 34% RH at three different sample positions and at different drop sites (3-5 μl of water, Millipore quality) by a static measurement of advancing and receding contact angles via drop contour analysis using ellipse fit (SCA 20, Dataphysics Instruments GmbH, Filderstadt). The wetting angle is defined as the advancing contact angle. The accuracy of measurement is about ±2°.

As for “Lapatinib ditosylate monohydrate [API used in examples 3 to 5]”, the contact angle amounted to 45 °.

Regarding “Lapatinib ditosylate monohydrate [API used in examples 1 and 2]”, the contact angle is 56 °.
